This is an account of results in ChEMBL document CHEMBL5303573, “Mapping human microbiome drug metabolism by gut bacteria and their genes” (Nature, 2019).

The nature of data set [1]: The drug is tested on Clostridium symbiosum strain: ATCC14940 for biotransformation. The drug concentrations were measured before and after a 12-h incubation by liquid-chromatography-coupled mass spectrometry (LC–MS). The settings on record: 2 µM.
The conditions of data set [2]: segatella copri, 12 h, 2 µM.
Description: The drug is tested on Prevotella copri strain: DSM18205 for biotransformation. The drug concentrations were measured before and after a 12-h incubation by liquid-chromatography-coupled mass spectrometry (LC–MS)
For data set [3] the following is noted: limosilactobacillus reuteri cf48-3a, 12 h, 2 µM.
Description: The drug is tested on Lactobacillus reuteri CF48-3A strain: BEI HM-102 for biotransformation. The drug concentrations were measured before and after a 12-h incubation by liquid-chromatography-coupled mass spectrometry (LC–MS)
The nature of data set [4]: The drug is tested on Bacteroides uniformis strain: ATCC8492 for biotransformation. The drug concentrations were measured before and after a 12-h incubation by liquid-chromatography-coupled mass spectrometry (LC–MS). The settings on record: 2 µM.
Data set [5] can be described thus: The drug is tested on Parabacteroides merdae strain: ATCC43184 for biotransformation. The drug concentrations were measured before and after a 12-h incubation by liquid-chromatography-coupled mass spectrometry (LC–MS). The settings on record: 2 µM.
Data set [6] can be described thus: The drug is tested on Collinsella intestinalis strain: DSM13280 for biotransformation. The drug concentrations were measured before and after a 12-h incubation by liquid-chromatography-coupled mass spectrometry (LC–MS). Particulars: 2 µM.
Data set [7] in a line: The drug is tested on Bacteroides fragilis strain: ATCC43859 for biotransformation. The drug concentrations were measured before and after a 12-h incubation by liquid-chromatography-coupled mass spectrometry (LC–MS). The settings on record: 2 µM.
Data set [8] can be described thus: The drug is tested on Anaerococcus hydrogenalis strain: DSM7454 for biotransformation. The drug concentrations were measured before and after a 12-h incubation by liquid-chromatography-coupled mass spectrometry (LC–MS). The settings on record: 2 µM.
Data set [9] is described as follows: The drug is tested on Providencia rettgeri strain: DSM1131 for biotransformation. The drug concentrations were measured before and after a 12-h incubation by liquid-chromatography-coupled mass spectrometry (LC–MS). It counts as ADME. More on the design: dose 2 uM, timepoint 0 vs 12 hours. Particulars: 2 µM.
A short description of data set [10]: The drug is tested on Bacteroides finegoldii strain: DSM17565 for biotransformation. The drug concentrations were measured before and after a 12-h incubation by liquid-chromatography-coupled mass spectrometry (LC–MS). The settings on record: 2 µM.
Data set [11] in a line: The drug is tested on Bacteroides sp. WH2 strain: WH2 for biotransformation. The drug concentrations were measured before and after a 12-h incubation by liquid-chromatography-coupled mass spectrometry (LC–MS). Particulars: bacteroides sp. wh2, 12 h, 2 µM.
Data set [12] in a line: The drug is tested on Anaerotruncus colihominis strain: DSM17241 for biotransformation. The drug concentrations were measured before and after a 12-h incubation by liquid-chromatography-coupled mass spectrometry (LC–MS). Particulars: 2 µM.
Data set [13] is described as follows: The drug is tested on Enterococcus faecalis strain: V583 for biotransformation. The drug concentrations were measured before and after a 12-h incubation by liquid-chromatography-coupled mass spectrometry (LC–MS). Particulars: 2 µM.
For data set [14] the following is noted: bacteroides thetaiotaomicron, 12 h, 2 µM.
Description: The drug is tested on Bacteroides thetaiotaomicron strain: 7330 for biotransformation. The drug concentrations were measured before and after a 12-h incubation by liquid-chromatography-coupled mass spectrometry (LC–MS)
For data set [15] the following is noted: bacteroides fragilis, 12 h, 2 µM.
Description: The drug is tested on Bacteroides fragilis strain: DS-208 for biotransformation. The drug concentrations were measured before and after a 12-h incubation by liquid-chromatography-coupled mass spectrometry (LC–MS)
For data set [16] the following is noted: bacteroides thetaiotaomicron, 12 h, 2 µM. This is another data set of the same source.
Description: The drug is tested on Bacteroides thetaiotaomicron strain: VPI-5482 for biotransformation. The drug concentrations were measured before and after a 12-h incubation by liquid-chromatography-coupled mass spectrometry (LC–MS)
Data set [17] is described as follows: The drug is tested on Bacteroides caccae strain: ATCC43185 for biotransformation. The drug concentrations were measured before and after a 12-h incubation by liquid-chromatography-coupled mass spectrometry (LC–MS). Particulars: 2 µM.
For data set [18] the following is noted: bacteroides eggerthii, 12 h, 2 µM.
Description: The drug is tested on Bacteroides eggerthii strain: DSM20697 for biotransformation. The drug concentrations were measured before and after a 12-h incubation by liquid-chromatography-coupled mass spectrometry (LC–MS)
Data set [19] can be described thus: The drug is tested on Escherichia coli strain: BW25113 for biotransformation. The drug concentrations were measured before and after a 12-h incubation by liquid-chromatography-coupled mass spectrometry (LC–MS). The settings on record: 2 µM.

Regarding `CCCCc1nc(Cl)c(CO)n1Cc1ccc(-c2ccccc2-c2nn[nH]n2)cc1` [LOSARTAN], the “Bacterial Biotransformation” value in [1] is reported as “Compound NOT metabolized”; in data set [2], “Compound NOT metabolized”; in [3], “Compound NOT metabolized”; in data set [4], “Compound metabolized”; in [5], “Compound metabolized”; in data set [6] it was “Compound NOT metabolized”. Moreover, the “Bacterial Biotransformation” value was “Compound metabolized” in data set [7]; “Compound NOT metabolized” in data set [8]; “Compound NOT metabolized” in [9]; “Compound metabolized” in data set [10]; “Compound NOT metabolized” in data set [11]; “Compound NOT metabolized” in data set [12]. Also, the “Bacterial Biotransformation” value in data set [13] is on record as “Compound NOT metabolized”.

With `COc1cc2nc(N3CCN(C(=O)c4ccco4)CC3)nc(N)c2cc1OC` [PRAZOSIN], the “Bacterial Biotransformation” value in data set [2], in data set [14], in [15], in [3], in data set [4] and in [5] was “Compound NOT metabolized” each time. Also, the “Bacterial Biotransformation” value in data set [6], in data set [7], in data set [8], in data set [9], in data set [10] and in data set [11] was “Compound NOT metabolized” each time. The “Bacterial Biotransformation” value in data set [16], in data set [17], in data set [12], in [13] and in data set [18] was “Compound NOT metabolized” each time.

Turning to `CC(CN1c2ccccc2Sc2ccccc21)N(C)C` (stereo not drawn) [PROMETHAZINE], the “Bacterial Biotransformation” value in data set [1], in [2], in [15], in [3], in data set [4] and in data set [5] was “Compound NOT metabolized” in each case. Moreover, the “Bacterial Biotransformation” value in data set [6], in data set [7], in [8], in [10], in [11] and in data set [16] was “Compound NOT metabolized” throughout. Moreover, the “Bacterial Biotransformation” value in [17], in [12], in data set [13] and in data set [18] was “Compound NOT metabolized” in each case.

Regarding `CC(N)C12CC3CC(CC(C3)C1)C2` (stereo not drawn) [RIMANTADINE], the “Bacterial Biotransformation” value in data set [1], in [2], in data set [14], in [15], in data set [3] and in [4] was “Compound NOT metabolized” throughout. Besides, the “Bacterial Biotransformation” value in [5], in [6], in [7], in [8], in [9] and in data set [10] was “Compound NOT metabolized” each time. For the same compound, the “Bacterial Biotransformation” value in data set [11], in [16], in [17], in data set [12], in data set [13] and in data set [18] was “Compound NOT metabolized” throughout.

As to `O=C(O)CCC(=O)O.O=C(O[C@H]1CN2CCC1CC2)N1CCc2ccccc2[C@@H]1c1ccccc1` [SOLIFENACIN SUCCINATE], the “Bacterial Biotransformation” value in data set [1], in data set [2], in data set [14], in data set [15], in [3] and in [4] was “Compound NOT metabolized” each time. Also, the “Bacterial Biotransformation” value in data set [5], in [6], in data set [7], in [8], in data set [9] and in data set [10] was “Compound NOT metabolized” each time. For the same compound, the “Bacterial Biotransformation” value in data set [11], in data set [17], in data set [12], in data set [13] and in data set [18] was “Compound NOT metabolized” each time.

Take `O=C(CCCN1CCC2(CC1)C(=O)NCN2c1ccccc1)c1ccc(F)cc1` [SPIPERONE]: the “Bacterial Biotransformation” value in data set [1], in data set [2], in data set [15], in data set [3], in data set [4] and in data set [19] was “Compound NOT metabolized” throughout. Besides, the “Bacterial Biotransformation” value in [5], in data set [6], in [7], in data set [8], in data set [10] and in [11] was “Compound NOT metabolized” throughout. In addition, the “Bacterial Biotransformation” value in data set [16], in data set [17], in [13] and in data set [18] was “Compound NOT metabolized” each time.

For the compound `CCN(C(C)=O)c1cccc(-c2ccnc3c(C#N)cnn23)c1` [ZALEPLON], the “Bacterial Biotransformation” value is “Compound NOT metabolized” in [1]; “Compound NOT metabolized” in data set [2]; “Compound NOT metabolized” in [15]; “Compound metabolized” in data set [4]; “Compound NOT metabolized” in [19]; “Compound metabolized” in [7]. The “Bacterial Biotransformation” value in [8], in data set [9], in data set [12], in [13] and in data set [18] was “Compound NOT metabolized” throughout.
